Test results published in publication PMC6693507 (Analytical chemistry, 2019).

Legend:
ACE = target: T1, ACE (Mus musculus, UniProt P09470); assay: In vitro ACE cleavage of synthetic peptides, MALDI-TOF MS; assay type: biochemical; settings: 2 pmol/μL peptide, WT ACE or NKO ACE, 30 min, 37 °C
T1 sequence (P09470 35-1312): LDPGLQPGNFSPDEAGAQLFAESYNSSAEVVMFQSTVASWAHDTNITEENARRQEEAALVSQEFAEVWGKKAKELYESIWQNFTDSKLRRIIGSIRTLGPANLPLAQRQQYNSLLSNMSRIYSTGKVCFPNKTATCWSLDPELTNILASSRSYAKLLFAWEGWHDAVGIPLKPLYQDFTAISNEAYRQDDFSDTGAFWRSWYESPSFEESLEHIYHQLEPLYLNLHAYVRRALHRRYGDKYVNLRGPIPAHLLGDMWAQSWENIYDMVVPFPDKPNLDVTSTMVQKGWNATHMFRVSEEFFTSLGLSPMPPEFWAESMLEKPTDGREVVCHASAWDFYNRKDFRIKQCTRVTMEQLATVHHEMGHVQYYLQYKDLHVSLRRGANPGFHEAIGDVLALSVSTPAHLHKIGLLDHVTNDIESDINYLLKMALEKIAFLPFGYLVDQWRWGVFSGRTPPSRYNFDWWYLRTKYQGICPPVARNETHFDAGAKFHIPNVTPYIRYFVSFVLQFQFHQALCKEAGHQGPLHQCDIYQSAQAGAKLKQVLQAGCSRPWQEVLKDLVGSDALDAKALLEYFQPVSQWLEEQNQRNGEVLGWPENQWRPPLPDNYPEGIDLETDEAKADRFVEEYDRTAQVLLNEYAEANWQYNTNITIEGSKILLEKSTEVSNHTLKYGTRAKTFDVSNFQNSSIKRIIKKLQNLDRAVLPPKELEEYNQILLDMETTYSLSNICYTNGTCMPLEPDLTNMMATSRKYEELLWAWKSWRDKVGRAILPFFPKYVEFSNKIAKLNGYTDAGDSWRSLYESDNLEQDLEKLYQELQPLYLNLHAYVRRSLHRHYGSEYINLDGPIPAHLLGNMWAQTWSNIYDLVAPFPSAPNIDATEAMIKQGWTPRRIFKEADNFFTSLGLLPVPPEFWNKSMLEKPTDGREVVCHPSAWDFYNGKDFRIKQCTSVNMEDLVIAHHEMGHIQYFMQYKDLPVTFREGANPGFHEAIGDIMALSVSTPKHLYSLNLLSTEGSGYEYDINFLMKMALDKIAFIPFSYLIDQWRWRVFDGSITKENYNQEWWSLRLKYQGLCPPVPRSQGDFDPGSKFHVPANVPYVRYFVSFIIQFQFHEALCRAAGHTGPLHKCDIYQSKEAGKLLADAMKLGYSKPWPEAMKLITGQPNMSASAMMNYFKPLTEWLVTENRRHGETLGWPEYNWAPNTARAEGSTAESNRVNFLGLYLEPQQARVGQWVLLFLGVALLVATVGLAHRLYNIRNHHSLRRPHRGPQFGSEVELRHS

WT ACE = assay: 100 μL of HEPES buffer; settings: mouse (ACE purified from mouse lung and kidney), 37 °C, up to 30 min

## FPDGTKEMD [serine-protease inhibitor A3K (22–30)]
ACE
  cleavage products detectable by MALDI-MS: not detectable

## FPRSPL
WT ACE
  not cleaved: not further cleaved by ACE

## FSSLMNLEEKPAPAA [apolipoprotein A-II (87–101)]
ACE
  cleavage products detectable by MALDI-MS: not detectable

## WGTGSPRPG
WT ACE
  not cleaved: not further cleaved by ACE
